Read-outs that look alike come from different tables or passages of the source.
System: HBV
Assay: Anti-HBV assay: HBV DNA in supernatants of HBV-producing cells (HepG2 2.2.15, P5A cell line), immunoaffinity capture, PCR and hybrid-capture detection
Type: cell-based, Hepatitis B virus
Details: table headed Anti-HCMV Activity
Method: Anti-HBV activity of compounds of formula (I) and (I-1) was determined with a high-capacity assay for assessing efficacy. Supernatants from growing HBV-producing cells (HepG2 2.2.15, P5A cell line) in 96-well plates are applied to microtiter plate wells which have been coated with a specific monoclonal antibody to HBV surface antigen (HBsAg). Virus particles present in the supernatants bind to the antibody and remain immobilized while other debris is removed by washing. These virus particles are then denatured to release HBV DNA strands which are subsequently amplified by the polymerase chain reaction and detected with a colorimetric hybrid-capture assay. Quantitation is achieved through fitting of a standard curve to dilutions of a cell supernatant with known HBV DNA content. By comparing HBV DNA levels of untreated control cell supernatants with supernatants containing a compound of formula (I) or (I-1), a measure of anti-HBV effectiveness is obtained.
HBV producer cells, 2500 cells/well, were seeded in 96-well culture dishes in RPMI/10% fetal bovine serum/2 mM glutamine (RPMI/10/2:). […] Twenty-five uL HBV standard media dilutions in RPMI/10/2 were added to 2 rows of wells to serve as an internal standard curve for quantitation, and the plates were sealed and incubated at 4° C. overnight. […]
Polymerase chain reaction (Saiki, R. K. et al., Science, 239 (4839) 487-91 (1988)) was carried out on 5 uL samples, using a Perkin Elmer PCR kit. […] Primers were chosen from conserved regions in the HBV genome, as determined by alignment of several sequences. […]
PCR products were detected with horse radish peroxidase-labeled oligonucleotide probes (Synthecell Corp., Rockville, Md. 20850), which hybridize to biotinylated strands of denatured PCR products directly in streptavidin-coated microtiter plate wells, using essentially the method of Holodiniy, M. et al., Bio Techniques, 12 (1)37-39 (1992). […] Quantities of HBV DNA present in the original samples were calculated by comparison with standards. […]

[1] = Hepatitis B virus, HepG2 2.2.15, read-out: Anti-HBV activity, approximate IC50 (50 percent decrease in HBV DNA), HepG2 2.2.15, P5A cell line

| Compound | IC50 [1] | IC50 (read-out: Anti-HBV activity, approximate IC50 (50 percent decrease in HBV DNA), HepG2 2.2.15, P5A cell line) |
| --- | --- | --- |
| OC[C@@H]1C[C@@H](O)[C@H](n2c(Br)nc3cc(Cl)c(Cl)cc32)C1 (relative stereo) [Ex. 13, (±)-(1R*, 2R*, 4S*)-2-(2-Bromo-5,6-dichloro-1H-benzimidazol-1-yl)-4-(hydroxymethyl)cyclo-pentanol] | 5000 nM | – |
| OC[C@@H]1C[C@H](n2c(Br)nc3cc(Cl)c(Cl)cc32)[C@@H](O)[C@H]1O [Ex. 69, (1R, 2S, 3S, 5S)-5-(2-Bromo-5,6-dichloro-1H-benzimidazol-1-yl)-3-(hydroxymethyl)-1,2-cyclopentanediol] | 720 nM | 1300 nM |

— patent US5534535A, “Therapeutic nucleosides” (Burroughs Wellcome Co., priority 1992, dated 1996)
